In patent publication US6538006B1, “Retroviral protease inhibitors” (Pharmacia Corporation, priority 1998, dated 2003):

How the values were obtained:
[1] = molecular target: T1, HIV protease (Human immunodeficiency virus type 1 group M subtype B, UniProt P04585); test: HIV protease enzyme assay (fluorogenic substrate); format: biochemical; details: for inhibition at 10 µM: read-out: inhibition of the HIV enzyme; for IC50: HIV protease 12.3 nanomolar, substrate 80 μM, pH 6.4, read-out: Enzyme Inhibition (IC50)
T1 construct: final enzyme concentration of 12.3 nanomolar, based on a molecular weight of 10,780
Description: The calculated IC50 (inhibiting concentration 50%, i.e., the concentrations at which the inhibitor compound reduces enzyme activity by 50%) values are shown in Table 1. The enzyme method is described below. The substrate is 2-aminobenzoyl-Ile-Nle-Phe(p-NO2)-Gln-ArgNH2. The positive control is MVT-101 (Miller, M. et al, Science, 246, 1149 (1989)]. The assay conditions are as follows:
Assay buffer: 20 mM sodium phosphate, pH 6.4
The above described substrate is dissolved in DMSO, then diluted 10 fold in assay buffer. Final substrate concentration in the assay is 80 μM.
HIV protease is diluted in the assay buffer to a final enzyme concentration of 12.3 nanomolar, based on a molecular weight of 10,780.
The final concentration of DMSO is 14% and the final concentration of glycerol is 18%. The test compound is dissolved in DMSO and diluted in DMSO to 10× the test concentration; 10 μL of the enzyme preparation is added, the materials mixed and then the mixture is incubated at ambient temperature for 15 minutes. The enzyme reaction is initiated by the addition of 40 μL of substrate. The increase in fluorescence is monitored at 4 time points (0, 8, 16 and 24 minutes) at ambient temperature. Each assay is carried out in duplicate wells.

[2] = test system: CEM cells; test: CEM cell assay, intrinsic toxicity of test compound (MTT, no virus); format: cell-based; details: CEM cells without virus, reduces cellular viability by 50%
Description: (§1) The effectiveness of the compounds tested in Part A was also determined in a CEM cell assay. The HIV inhibition assay method of acutely infected cells is an automated tetrazolium based calorimetric assay essentially that reported by Pauwles et al, J. Virol. Methods 20, 309-321 (1988). Assays were performed in 96-well tissue culture plates. CEM cells, a CD4^+ cell line, were grown in RPMI-1640 medium (Gibco) supplemented with a 10% fetal calf serum and were then treated with polybrene ([…]). An 80 μL volume of medium containing 1×10^4 cells was dispensed into each well of the tissue culture plate. To each well was added a 100 μL volume of test compound dissolved in tissue culture medium (or medium without test compound as a control) to achieve the desired final concentration and the cells were incubated at 37° C. for 1 hour. A frozen culture of HIV-1 was diluted in culture medium to a concentration of 5×10^4 TCID50 per mL (TCID50=the dose of virus that infects 50% of cells in tissue culture), and a 20 μL volume of the virus sample (containing 1000 TCID50 of virus) was added to wells containing test compound and to wells containing only medium (infected control cells). Several wells received culture medium without virus (uninfected control cells). Likewise, the intrinsic toxicity of the test compound was determined by adding medium without virus to several wells containing test compound. In summary, the tissue culture plates contained the following experiments:
(§2) In experiments 2 and 4, the final concentrations of test compounds were 1, 10, 100 and 500 μg/mL. Either azidothymidine (AZT) or dideoxyinosine (ddI) was included as a positive drug control. […] DMSO was added to all control wells at an appropriate concentration.
(§3) Following the addition of virus, cells were incubated at 37° C. in a humidified, 5% CO2 atmosphere for 7 days. Test compounds could be added on days 0, 2 and 5 if desired. On day 7, post-infection, the cells in each well were resuspended and a 100 μL sample of each cell suspension was removed for assay. A 20 μL volume of a 5 mg/mL solution of 3-(4,5-dimethylthiazol-2-yl)-2,5-diphenyltetrazolium bromide (MTT) was added to each 100 μL cell suspension, and the cells were incubated for 4 hours at […] in a 5% CO2 environment. […] To each sample was added 100 μL of 10% sodium dodecylsulfate in 0.01 N HCl to lyse the cells, and samples were incubated overnight. The absorbance at 590 nm was determined for each sample using a Molecular Devices microplate reader. Absorbance values for each set of wells is compared to assess viral control infection, uninfected control cell response as well as test compound by cytotoxicity and antiviral efficacy.
(§4) The calculated EC50 (effective concentration 50%, i.e., the concentration at which the inhibitor compound reduces cytopathicity by 50%) and TD50 (toxic dose 50%, i.e., the concentration at which the inhibitor compound reduces cellular viability by 50%) values for these compounds are also shown in Table 1.

[3] = test system: HIV-1; test: CEM cell assay, HIV inhibition in acutely infected cells (MTT); format: cell-based; details: Human immunodeficiency virus 1, CCRF-CEM, 168 h; CEM cells infected with HIV-1, 7 days, reduces cytopathicity by 50%; read-out: Antiviral Activity in Cell Culture (EC50)
Description: as §1, §2, §3, §4

SMILES | inhibition at 10 µM [1] [%] | Cell Toxicity (TD50) [2] | IC50 [1] [nM] | EC50 [3] [nM]
C[C@H](CS(C)(=O)=O)C(=O)N[C@@H](Cc1ccccc1)[C@H](O)CN1C[C@H]2CCCC[C@H]2C[C@H]1C(=O)NC(C)(C)C (relative stereo) [Example 6, 3-Isoquinolinecarboxamide, N-(1,1-Dimethylethyl)decahydro-2-[2-hydroxy-3-[[2-methyl-3-(methylsulfonyl)-1-oxopropyl]amino]-4-phenylbutyl]-, [3S-[2(2S*,3S*(R*)],3α,4aβ,8aβ]]-] | 3 to 100 |  |  | 
COc1ccc(COC(=O)NC[C@@H](C)C(=O)N[C@@H](Cc2ccccc2)[C@H](O)CN2C[C@H]3CCCC[C@H]3C[C@H]2C(=O)NC(C)(C)C)cc1 |  | 2,000 nM | 2 | 52
C[C@@H](C(=O)N[C@@H](Cc1ccccc1)[C@H](O)CN1C[C@H]2CCCC[C@H]2C[C@H]1C(=O)NC(C)(C)C)C(C)(C)C(=O)O |  | 50,000 nM | 23 | 184
C[C@@H](C(=O)N[C@@H](Cc1ccccc1)[C@H](O)CN1C[C@H]2CCCC[C@H]2C[C@H]1C(=O)NC(C)(C)C)C(C)(C)C(=O)O (relative stereo) [Example 12C, butanoic acid, 4-[[3-[3-[[(1,1-dimethylethyl)amino]carbonyl]octahydro-2(1H)-isoquinolinyl]-2-hydroxy-1-(phenylmethyl)propyl]amino]-2,2,3-trimethyl-4-oxo-, [3S-[2[1R*(S*),2S*],3α,4aβ,8aβ]]-] | 3 to 100 |  |  | 
CC(C)(C)NC(=O)[C@@H]1C[C@@H]2CCCC[C@@H]2CN1C[C@@H](O)[C@H](Cc1ccccc1)NC(=O)C[C@H](NC(=O)c1ccc2ccccc2n1)C(N)=O (relative stereo) [Example 10, Butanediamide, N^4-[3-[3-[[((1,1-Dimethylethyl)-amino]carbonyl]octahydro-2(1H)-isoquinolinyl]-2-hydroxy-1-(phenylmethyl)propyl]-2-[(2-quinolinylcarbonyl)amino]-, [3S[2[1R*(R*),2S*],3α,4aβ,8aβ]]-] | 3 to 100 |  |  | 
COc1ccc(COC(=O)NC[C@@H](C)C(=O)N[C@@H](Cc2ccccc2)[C@H](O)CN2C[C@H]3CCCC[C@H]3C[C@H]2C(=O)NC(C)(C)C)cc1 (relative stereo) [Example 4, Carbamic Acid, [3-[[3-[3-[[(1,1-Dimethylethyl)-amino]carbonyl]octahydro-2(1H)-isoquinolinyl]-2-hydroxy-1-(phenylmethyl)propyl]amino]-2-methyl-3-oxopropyl]-, (4-Methoxyphenyl)methyl Ester, [3S-[2(1R*,(S*),2S*),3α,4aβ,8aβ]]-] | 3 to 100 |  |  | 
C[C@@H](C(=O)N[C@@H](Cc1ccccc1)[C@H](O)CN1C[C@H]2CCCC[C@H]2C[C@H]1C(=O)NC(C)(C)C)C(C)(C)C(N)=O (relative stereo) [Example 12, Butanamide, 4-[[3-[3-[[(1,1-Dimethylethyl)-amino]carbonyl]octahydro-2(1H)-isoquinolinyl]-2-hydroxy-1-(phenylmethyl)propyl]amino]-2,2,3-trimethyl-4-oxo-, [3S-[2[1R*(S*),2S*],3α,4aβ,8aβ]]-] | 3 to 100 |  |  | 
C[C@@H](C(=O)N[C@@H](Cc1ccccc1)[C@H](O)CN1C[C@H]2CCCC[C@H]2C[C@H]1C(=O)NC(C)(C)C)C(C)(C)CN |  | 59,000 nM | 9 | 98
CC(C)(C)NC(=O)[C@@H]1C[C@@H]2CCCC[C@@H]2CN1C[C@@H](O)[C@H](Cc1ccccc1)NC(=O)C[C@H](NC(=O)c1ccc2ccccc2n1)C(N)=O |  | 5,000 nM | 9 | 37
C[C@H](CS(C)(=O)=O)C(=O)N[C@@H](Cc1ccccc1)[C@H](O)CN1C[C@H]2CCCC[C@H]2C[C@H]1C(=O)NC(C)(C)C |  | 58,000 nM | 7 | 42
